In paper PMC12751012, “Nanoscale Direct-to-Biology Optimization and Structural Insights into Selective S. aureus TrmD Inhibitors” (Journal of Medicinal Chemistry, 2025):

Molecular target: T1, S. aureus TrmD (Staphylococcus aureus, UniProt Q2FZ43)
T1 construct: made in house; host or cells: E. coli BL21
T1 sequence (Q2FZ43 1-245): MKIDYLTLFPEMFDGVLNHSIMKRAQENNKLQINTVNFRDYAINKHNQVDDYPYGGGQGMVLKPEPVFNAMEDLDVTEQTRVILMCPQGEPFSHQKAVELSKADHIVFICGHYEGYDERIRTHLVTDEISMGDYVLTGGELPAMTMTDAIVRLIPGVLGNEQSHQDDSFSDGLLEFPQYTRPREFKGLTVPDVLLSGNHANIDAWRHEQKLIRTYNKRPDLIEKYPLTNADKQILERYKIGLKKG
Assay: nanoSAR direct-to-biology FP displacement screening of crude triazoles
Assay type: binding
Details: crude triazole at 1 μM, assuming full conversion; 500 nM TrmD, 10 nM tracer 4; read-out: % displaced tracer
Text: Next, we conducted an S. aureus TrmD-targeting nanoSAR study. For this, alkyne 7 was reacted on a 96 nmol scale with an in-house diversity-oriented azide library (N = 320, mean pairwise Tanimoto similarity = 0.11) designed to cover a large chemical fragment space, generating a panel of 320 crude triazoles ready for FP assay investigation. The composition of the azide library is designed to be chemically diverse in several categories, including physicochemical properties such as polar surface area, lipophilicity, and the number of hydrogen bond donors and acceptors, as well as structural features like the number of aromatic rings (Figure S23). A complete list of chemical structures included in the azide library can be found in Table S4. In situ reaction conditions for CuAAC were adapted from Gehrtz et al., utilizing CuSO4, which is reduced in situ to Cu(I) by sodium ascorbate and stabilized by TBTA. Degassed water and DMSO (1:1) were used as solvents to prevent the oxidation from Cu(I) to Cu(II). For the synthesis of the triazole library, a master mix was prepared, containing all reaction components except the azides. All reactions were started by the addition of the respective azide in 24 μL at a final product concentration of 4 mM (96 nmol). Reaction mixtures were incubated for 16 h at room temperature and under an argon atmosphere in sealed 96-well plates.
For FP assay screening, we used 500 nM of S. aureus TrmD and 10 nM of tracer 4 in a total volume of 40 μL in 96-well plates. We performed control measurements and defined 10 nM of tracer 4 in buffer as 100% displacement and the DMSO control as 0% tracer displacement. […] The results of the FP screening were visualized in a waterfall plot and plate-based heatmaps (Figure , Figure S3).
Fluorescence polarization (FP) assays were performed as follows. The assays for H. influenzae TrmD have been described previously. All assays were conducted in technical triplicate using black 96-well half area plates. For the FP assays, a tracer (20 nM Cy5TPD for E. coli and H. influenzae TrmD, 10 nM tracer 4 for S. aureus TrmD) was mixed with the respective enzyme (2 μM E. coli TrmD, 2 μM H. influenzae TrmD, 500 nM S. aureus TrmD) in buffer (E. coli and H. influenzae TrmD: 50 mM HEPES, 500 mM NaCl, 5% Glycerol, pH 7.5, S. aureus TrmD: 40 mM Tris HCl, 100 mM NaCl, 10 mM MgCl2, 5% Glycerol, pH 7.5). The compounds were added in varying concentrations for K D-value determination. […] The Z-factor for tracer 4 was determined by measuring 48 replicates of the free tracer (positive controls, PC) and 48 replicates of a mixture of enzyme and tracer (negative controls, NC). The Z-factor is defined in terms of the means (μ) and standard deviations (σ) of the positive and negative controls and calculated as Z = 1–(3*(σnc + σpc)/(μnc–μpc)). […] Polarization values (mP) were determined from polarization-specific parallel and orthogonal fluorescence intensities. K D-values were calculated in GraphPad Prism 8.0.1 using the four-parameter Hill equation: y(% tracer bound) = bottom + ([ligand]-slope) × (top–bottom)/([ligand]-slope + K Dslope).
A commercial azide diversity library (Enamine) containing 320 azides at a concentration of 100 mM in DMSO in a 96-well tube rack was employed for this nanoSAR study. For the reaction of the azides with alkyne 7 via CuAAC, a master mix was prepared. […] The solvents were degassed with argon to avoid oxidation of the copper(I) during the reaction. To each well of a 96-well PCR plate (Applied Biosystems MicroAmp) were added 23 μL of the master mix and 1 μL of the 100 mM azide stock. The final concentrations in the Mastermix were: 8.7 mM sodium ascorbate (8.3 mM in reaction well), 1.1 mM TBTA (1.0 mM in reaction well), 4.3 mM 7 (4.1 mM in reaction well), 1.3 mM CuSO4×5 H2O (1.2 mM in reaction well).

Compound	inhibition at 1 µM
O=c1[nH]cnc2[nH]cc(-c3cn(C[C@@H]4CC[C@H]4C(F)(F)F)nn3)c12 [Compound 01C12, FC(F)(F)[C@H]1[C@H](CN2N=NC(C=3C=4C(=O)NC=NC4NC3)=C2)CC1]	47%
COC(=O)[C@@H]1CCC[C@H](n2cc(-c3c[nH]c4nc[nH]c(=O)c34)nn2)C1 [Compound 01D01, O=C(OC)[C@H]1C[C@@H](N2N=NC(C=3C=4C(=O)NC=NC4NC3)=C2)CCC1]	33%
O=c1[nH]cnc2[nH]cc(-c3cn(C[C@H]4OCCOC45CCC5)nn3)c12 [Compound 01D02, O=C1NC=NC=2NC=C(C=3N=NN(C3)C[C@H]4OCCOC45CCC5)C12]	61%
O=c1[nH]cnc2[nH]cc(-c3cn([C@H]4CC[C@@H]4O)nn3)c12 [Compound 01D04, O=C1NC=NC=2NC=C(C=3N=NN(C3)[C@@H]4[C@@H](O)CC4)C12]	21%
O=c1[nH]cnc2[nH]cc(-c3cn(-c4cccc5cnccc45)nn3)c12 [Compound 01D05, O=C1NC=NC=2NC=C(C=3N=NN(c4c5c(cncc5)ccc4)C3)C12]	16%
CCc1nnc(Cn2cc(-c3c[nH]c4nc[nH]c(=O)c34)nn2)o1 [Compound 01D06, O=C1NC=NC=2NC=C(C=3N=NN(C3)CC=4OC(=NN4)CC)C12]	31%
CCOc1ccc(-n2cc(-c3c[nH]c4nc[nH]c(=O)c34)nn2)cc1 [Compound 01D07, O=C1NC=NC=2NC=C(C=3N=NN(c4ccc(OCC)cc4)C3)C12]	19%
Cc1ccccc1-n1cc(-c2c[nH]c3nc[nH]c(=O)c23)nn1 [Compound 01D08, O=C1NC=NC=2NC=C(C=3N=NN(c4c(cccc4)C)C3)C12]	9%
O=c1[nH]cnc2[nH]cc(-c3cn(CCn4cccn4)nn3)c12 [Compound 01D09, O=C1NC=NC=2NC=C(C=3N=NN(C3)CCN4N=CC=C4)C12]	39%
Cc1ccc([C@@H](O)[C@H](C)n2cc(-c3c[nH]c4nc[nH]c(=O)c34)nn2)cc1 [Compound 01D10, O=C1NC=NC=2NC=C(C=3N=NN(C3)[C@H]([C@H](O)c4ccc(cc4)C)C)C12]	49%
COC(=O)c1sccc1-n1cc(-c2c[nH]c3nc[nH]c(=O)c23)nn1 [Compound 01D11, S1C(C(=O)OC)=C(N2N=NC(C=3C=4C(=O)NC=NC4NC3)=C2)C=C1]	21%
COC(=O)c1cnoc1Cn1cc(-c2c[nH]c3nc[nH]c(=O)c23)nn1 [Compound 01D12, O=C(OC)C1=C(ON=C1)CN2N=NC(C=3C=4C(=O)NC=NC4NC3)=C2]	38%
CN(C)c1ccc(-n2cc(-c3c[nH]c4nc[nH]c(=O)c34)nn2)cc1 [Compound 01E01, O=C1NC=NC=2NC=C(C=3N=NN(c4ccc(N(C)C)cc4)C3)C12]	33%
C[C@H](c1ccccc1F)n1cc(-c2c[nH]c3nc[nH]c(=O)c23)nn1 [Compound 01E02, Fc1c(cccc1)[C@H](N2N=NC(C=3C=4C(=O)NC=NC4NC3)=C2)C]	50%
CCc1nc(Cn2cc(-c3c[nH]c4nc[nH]c(=O)c34)nn2)cs1 [Compound 01E03, S1C(=NC(=C1)CN2N=NC(C=3C=4C(=O)NC=NC4NC3)=C2)CC]	75%
O=c1[nH]cnc2[nH]cc(-c3cn(Cc4cn5ccccc5n4)nn3)c12 [Compound 01E04, O=C1NC=NC=2NC=C(C=3N=NN(C3)CC=4N=C5N(C4)C=CC=C5)C12]	46%
COC(=O)Cn1cc(-c2c[nH]c3nc[nH]c(=O)c23)nn1 [Compound 01E05, O=C(OC)CN1N=NC(C=2C=3C(=O)NC=NC3NC2)=C1]	11%
COc1ccc(-n2cc(-c3c[nH]c4nc[nH]c(=O)c34)nn2)cc1OC [Compound 01E06, O=C1NC=NC=2NC=C(C=3N=NN(c4cc(OC)c(OC)cc4)C3)C12]	19%

Compound	inhibition at 1 µM
O=c1[nH]cnc2[nH]cc(-c3cn(CCN4CCOCC4)nn3)c12 [Compound 01E07, O=C1NC=NC=2NC=C(C=3N=NN(C3)CC[NH+]4CCOCC4)C12]	34%
CN(C)CCCn1cc(-c2c[nH]c3nc[nH]c(=O)c23)nn1 [Compound 01E08, O=C1NC=NC=2NC=C(C=3N=NN(C3)CCC[NH+](C)C)C12]	35%
CCNC(=O)Cn1cc(-c2c[nH]c3nc[nH]c(=O)c23)nn1 [Compound 01E09, O=C1NC=NC=2NC=C(C=3N=NN(C3)CC(=O)NCC)C12]	33%
Cn1cc(-n2cc(-c3c[nH]c4nc[nH]c(=O)c34)nn2)cn1 [Compound 01E10, O=C1NC=NC=2NC=C(C=3N=NN(C=4C=NN(C4)C)C3)C12]	17%
Cc1csc(C[C@H](C)n2cc(-c3c[nH]c4nc[nH]c(=O)c34)nn2)n1 [Compound 01E11, S1C(=NC(=C1)C)C[C@@H](N2N=NC(C=3C=4C(=O)NC=NC4NC3)=C2)C]	31%
O=c1[nH]cnc2[nH]cc(-c3cn(-c4ccccc4-c4ccccc4)nn3)c12 [Compound 01E12, O=C1NC=NC=2NC=C(C=3N=NN(c4c(c5ccccc5)cccc4)C3)C12]	34%
N#CC1(Cn2cc(-c3c[nH]c4nc[nH]c(=O)c34)nn2)CCCC1 [Compound 01F01, O=C1NC=NC=2NC=C(C=3N=NN(C3)CC4(C#N)CCCC4)C12]	74%
C[C@@H](C(=O)Nc1ccccc1)n1cc(-c2c[nH]c3nc[nH]c(=O)c23)nn1 [Compound 01F02, O=C1NC=NC=2NC=C(C=3N=NN(C3)[C@H](C(=O)Nc4ccccc4)C)C12]	28%
CS(=O)(=O)NCCn1cc(-c2c[nH]c3nc[nH]c(=O)c23)nn1 [Compound 01F03, S(=O)(=O)(NCCN1N=NC(C=2C=3C(=O)NC=NC3NC2)=C1)C]	62%
Cn1cc(Cn2cc(-c3c[nH]c4nc[nH]c(=O)c34)nn2)cn1 [Compound 01F04, O=C1NC=NC=2NC=C(C=3N=NN(C3)CC=4C=NN(C4)C)C12]	57%
NC(=O)c1cc(-n2cc(-c3c[nH]c4nc[nH]c(=O)c34)nn2)ccn1 [Compound 01F05, O=C(N)c1nccc(N2N=NC(C=3C=4C(=O)NC=NC4NC3)=C2)c1]	16%
O=c1[nH]cnc2[nH]cc(-c3cn(Cc4cnc(C(F)(F)F)s4)nn3)c12 [Compound 01F06, S1C(=NC=C1CN2N=NC(C=3C=4C(=O)NC=NC4NC3)=C2)C(F)(F)F]	72%
Cc1nc2ccc(-n3cc(-c4c[nH]c5nc[nH]c(=O)c45)nn3)cc2s1 [Compound 01F07, S1c2c(N=C1C)ccc(N3N=NC(C=4C=5C(=O)NC=NC5NC4)=C3)c2]	11%
O=c1[nH]cnc2[nH]cc(-c3cn(-c4ccc5c(c4)CCC5)nn3)c12 [Compound 01F08, O=C1NC=NC=2NC=C(C=3N=NN(c4cc5c(cc4)CCC5)C3)C12]	5%
Cc1nc(Cn2cc(-c3c[nH]c4nc[nH]c(=O)c34)nn2)cs1 [Compound 01F09, S1C(=NC(=C1)CN2N=NC(C=3C=4C(=O)NC=NC4NC3)=C2)C]	53%
O=c1[nH]cnc2[nH]cc(-c3cn(Cc4cccc5ccccc45)nn3)c12 [Compound 01F10, O=C1NC=NC=2NC=C(C=3N=NN(C3)Cc4c5c(ccc4)cccc5)C12]	84%
C[C@@H](n1cc(-c2c[nH]c3nc[nH]c(=O)c23)nn1)C12CC(CO1)C2 [Compound 01F11, O=C1NC=NC=2NC=C(C=3N=NN(C3)[C@@H](C45OCC(C4)C5)C)C12]	26%
